# Results as given in patent publication US4762850A, “Dopamine-beta-hydroxylase inhibitors” (SmithKline Beckman Corporation, priority 1987, dated 1988).
# Where a name gives a salt, the structure may show the parent alone.
# Experiments:
# [1] = biological target: T1, dopamine-β-hydroxylase (DBH) (Bos taurus, UniProt P15101); assay: in vitro DBH inhibition: conversion of tyramine to octopamine (standard procedure of Pisano et al.); type: biochemical; details: absorbance at 330 nm, read-out: DBH IC50 (molar concentration of compound at which DBH activity was halved)
# T1 sequence (P15101 1-610): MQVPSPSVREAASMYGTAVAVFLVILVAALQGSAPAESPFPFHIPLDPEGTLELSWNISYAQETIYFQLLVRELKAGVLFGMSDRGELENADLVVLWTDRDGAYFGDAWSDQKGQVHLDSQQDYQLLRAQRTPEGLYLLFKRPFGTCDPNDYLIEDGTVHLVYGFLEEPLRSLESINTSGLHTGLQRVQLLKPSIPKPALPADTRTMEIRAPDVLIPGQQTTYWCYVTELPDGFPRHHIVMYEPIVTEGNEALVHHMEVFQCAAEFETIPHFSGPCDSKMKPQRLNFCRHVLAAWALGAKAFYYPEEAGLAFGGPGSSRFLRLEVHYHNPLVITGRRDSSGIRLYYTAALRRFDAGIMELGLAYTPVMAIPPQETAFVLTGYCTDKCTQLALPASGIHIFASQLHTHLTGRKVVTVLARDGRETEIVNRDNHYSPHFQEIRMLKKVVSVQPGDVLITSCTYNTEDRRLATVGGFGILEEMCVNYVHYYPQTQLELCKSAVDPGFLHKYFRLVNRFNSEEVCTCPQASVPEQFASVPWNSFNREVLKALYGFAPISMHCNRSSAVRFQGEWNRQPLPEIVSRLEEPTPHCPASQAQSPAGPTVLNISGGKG
# Procedure: Listed in Table I are the compounds of the invention that were tested for in vitro DBH inhibition by a standard procedure for assaying conversion of tyramine to octopamine in the presence of DBH. J. J. Pisano, et al., Biochim. Biophys. Acta, 43, 566-568 (1960). Octopamine was assayed following sodium periodate oxidation to p-hydroxybenzaldehyde by measuring spectrophotometric absorbance at 330 nm. In Table I, inhibition is given in molar concentration of compound at which DBH activity was halved (IC50).
# [2] = biological target: T1, dopamine-β-hydroxylase (DBH); details: cited from earlier work; for DBH inhibition (in words): literature reports
# [3] = Ehrreich et al.; cited from earlier work
# [4] = Teresawa et al. and references cited therein; cited from earlier work
# [5] = mean arterial blood pressure in spontaneously hypertensive rats; type: in vivo; details: 50 mg/kg intraperitoneally
# Procedure: Further, spontaneously hypertensive rats were treated with a suspension or solution of N-(2-aminoethyl)-1-(3,5-difluorobenzyl)-2-mercaptoimidazole-5-carboxamide,formate at a dose of 50 mg/kg intraperitoneally, and mean arterial blood pressure was monitored for 260 minutes using indwelling cannulae in the tail arteries.
structure (smiles),measurement,setting,value
"O=C(O)c1cnc(S)n1Cc1cc(F)cc(F)c1 [1-(3,5-Difluorobenzyl)-2-mercaptoimidazole-5-carboxylic acid]",IC50,[1],100 µM
"O=C(O)c1ccc(CCC(Br)CBr)cn1 (stereo not drawn) [5-(3,4-dibromobutyl)picolinic acid]",DBH inhibition (in words),[2],DBH inhibitors
O=C(O)c1ccc(CCCCCl)cn1 [5-(4-chlorobutyl) picolinic acid],DBH inhibition (in words),[2],inhibit DBH
CN(C)C(=S)SCc1ccc(C(=O)O)nc1 [5-(dimethyldithiocarbamoylmethyl)picolinic acid],DBH inhibition (in words),[2],DBH inhibitors
"NOCc1ccccc1 [Benzyloxyamine, benzyloxyamine]",mode of DBH inhibition,[2],competitive inhibitors
"CCCCc1ccc(C(N)=O)nc1 [Bupicomide, 5-(n-butyl)picolinamine]",antihypertensive activity,[3],has antihypertensive activity
same,DBH inhibition (in words),[2],DBH inhibitor
CCCCc1ccc(C(=O)O)nc1 [Fusaric acid],toxicity,[4],hepatotoxic
"NCCNC(=O)c1cnc(S)n1Cc1cc(F)cc(F)c1 [N-(2-Aminoethyl)-1-(3,5-difluorobenzyl)-2-mercaptoimidazole-5-carboxamide,formate]",IC50,[1],0.34 µM
same,mean arterial blood pressure reduction compared to vehicle-treated controls,[5]; spontaneously hypertensive rats,significant blood pressure reductions
same,blood pressure when monitoring was terminated,[5]; monitored for 260 minutes,blood pressure remained decreased
NNCc1ccccc1 [benzylhydrazine],mode of DBH inhibition,[2],competitive inhibitors
